GI50 and TGI data for seven compounds are collected here from PubChem BioAssay (NCI).

Values joined by “and” are separate entries in the source; they are usually repeats but may differ in a detail not shown here. Equal values may be shown once.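 Test compounds were applied to cells in 96-well plates for 48 hours at 5 doses. Here, GI50 denotes the concentration required for 50% inhibition of growth. Definition used: TGI = concentration required for complete inhibition of growth.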

Some test systems named below: HOP-62 NSCLC; U251 CNS; NCI-H23 lung; RPMI-8226 leukemia; A549 NSCLC; SR leukemia; OVCAR-4 ovarian; PC-3 prostate; MALME-3M melanoma; MDA-MB-231 breast.
What all share (assay): DTP human tumour cell line panel, 48 h

By GI50 is commonly meant the concentration giving 50% growth inhibition. What is called TGI is the concentration at which net growth stops. High values mean less potent growth arrest, low ones more potent growth arrest. In the case of `CC(=O)O[C@]1(C(C)=O)CC[C@H]2[C@@H]3C=C(C)C4=CC(=O)CC[C@]4(C)[C@H]3CC[C@@]21C`, the GI50 with HOP-62 NSCLC is more than 100 µM; in the test with U251 CNS it was more than 60.9 µM; with NCI-H23 lung it was more than 100 µM; in the test with RPMI-8226 leukemia it was 2.78 µM; with A549 NSCLC, more than 78.1 µM; in the test on SR leukemia it was more than 55.8 µM. Moreover, the GI50 in the test on OVCAR-4 ovarian was more than 91.5 µM; in the test on PC-3 prostate, 42.6 µM; in the test on MALME-3M melanoma, more than 74 µM; in the test on MDA-MB-231 breast, more than 100 µM. In addition, the TGI in the test on HOP-62 NSCLC, in the test on U251 CNS, with NCI-H23 lung, in the test with RPMI-8226 leukemia, in the test on A549 NSCLC and in the test on SR leukemia was more than 100 µM in each case. The TGI in the test on OVCAR-4 ovarian, in the test on PC-3 prostate, in the test with MALME-3M melanoma and with MDA-MB-231 breast was more than 100 µM in each case.

Regarding `CCCCCCCCCCCC1CCCC(C)N1` (stereo unspecified), the GI50 was 14.8 µM in the test with HOP-62 NSCLC; 4.53 µM with U251 CNS; 8.49 µM with NCI-H23 lung; 1.66 µM in the test with RPMI-8226 leukemia; 13.4 µM with A549 NSCLC; 2.63 µM in the test with SR leukemia. The GI50 with OVCAR-4 ovarian was 7.18 µM; in the test with PC-3 prostate it was 5.57 µM; in the test on MALME-3M melanoma, 8.03 µM; in the test on MDA-MB-231 breast, 3.99 µM. Besides, the TGI with HOP-62 NSCLC is 46 µM and 107 µM; with U251 CNS it was 18.2 µM and 128 µM; with NCI-H23 lung, 23.9 µM and 133 µM; in the test with A549 NSCLC, 32.7 µM and 164 µM; in the test with SR leukemia, more than 100 µM; in the test with OVCAR-4 ovarian it was 22.3 µM and 136 µM. In addition, the TGI in the test with PC-3 prostate is 45 µM; with MALME-3M melanoma it was 22.7 µM and 166 µM; in the test on MDA-MB-231 breast, 18 µM.

Take `COc1ccc2c(c1)n([O-])c1ccccc1[n+]2=O`: the TGI in the test on HOP-62 NSCLC was more than 100 µM; in the test on U251 CNS it was more than 100 µM; in the test on NCI-H23 lung, > 100 µM and 91.4 µM; in the test with RPMI-8226 leukemia, 97.1 µM and > 100 µM; with A549 NSCLC, > 100 µM and 44.7 µM; in the test on SR leukemia it was 59.6 µM and 12.2 µM. For the same compound, the TGI is 77.8 µM with OVCAR-4 ovarian; > 100 µM and 73.1 µM with PC-3 prostate; > 100 µM and 69.9 µM with MALME-3M melanoma; more than 100 µM in the test with MDA-MB-231 breast. Besides, the GI50 in the test on SR leukemia is 7.56 µM and 2.42 µM; in the test on PC-3 prostate, 91.9 µM and 28.3 µM.

Regarding `COc1cc2c(cc1Nc1nc(Nc3ccsc3C(N)=O)c3cc[nH]c3n1)N(C(=O)CN(C)C)CCC2(C)C`, the GI50 was 1.65 µM with HOP-62 NSCLC; 3.09 µM in the test on U251 CNS; 0.791 µM in the test on NCI-H23 lung; 1.09 µM in the test with RPMI-8226 leukemia; 0.975 µM with A549 NSCLC; 0.00596 µM in the test with SR leukemia. Further, the GI50 was 3.02 µM in the test on OVCAR-4 ovarian, 2.55 µM with PC-3 prostate, 1.48 µM in the test on MALME-3M melanoma and 3.22 µM in the test on MDA-MB-231 breast. Also, the TGI in the test with HOP-62 NSCLC amounted to 5.3 µM; in the test with U251 CNS, 6.25 µM; with NCI-H23 lung, 5.15 µM; with RPMI-8226 leukemia, 5.21 µM; in the test with A549 NSCLC it was 4.69 µM; with SR leukemia, 4.6 µM. Also, the TGI came to 6.59 µM in the test with OVCAR-4 ovarian, 7.01 µM with PC-3 prostate, 5.62 µM in the test with MALME-3M melanoma and 7.42 µM with MDA-MB-231 breast.

Take `CN1CCN(c2ccc3nc(-c4ccc5nc(-c6ccc(OCCC(C)(C)C)cc6)[nH]c5c4)[nH]c3c2)CC1`: the GI50 in the test on HOP-62 NSCLC was 7.1 µM; in the test with U251 CNS, 2.16 µM; in the test on NCI-H23 lung, 15.1 µM; in the test with RPMI-8226 leukemia, 2.86 µM; with A549 NSCLC it was 4.69 µM; in the test on SR leukemia, 2.9 µM. Moreover, the GI50 is 10.1 µM in the test with OVCAR-4 ovarian, 2.63 µM with PC-3 prostate, 12.2 µM with MALME-3M melanoma and 2.85 µM in the test with MDA-MB-231 breast. Moreover, the TGI in the test with HOP-62 NSCLC was determined as 26.8 µM; in the test with U251 CNS it was 3.81 µM; in the test on NCI-H23 lung, 33 µM; in the test with RPMI-8226 leukemia, 7.44 µM; in the test with A549 NSCLC, 17.7 µM; with SR leukemia it was 8.05 µM. For the same compound, the TGI in the test with OVCAR-4 ovarian worked out at 25.5 µM; in the test on PC-3 prostate it was 5.81 µM; in the test on MALME-3M melanoma, 27.2 µM; in the test with MDA-MB-231 breast it was 5.83 µM.

Turning to `COc1ccc(OC)c(/C=C(/C)[N+](=O)[O-])c1`, the GI50 in the test on HOP-62 NSCLC was 2.31 µM; with U251 CNS it was 1.68 µM; in the test with NCI-H23 lung, 1.83 µM; in the test with RPMI-8226 leukemia, 0.603 µM; in the test with A549 NSCLC, 4.54 µM; with SR leukemia, 0.316 µM. Also, the GI50 was 1.98 µM in the test on OVCAR-4 ovarian, 2.4 µM with PC-3 prostate, 1.81 µM in the test with MALME-3M melanoma and 2.71 µM in the test with MDA-MB-231 breast. Further, the concentration for total growth inhibition (TGI) is 4.86 µM in the test on HOP-62 NSCLC; 3.18 µM in the test on U251 CNS; 4.52 µM in the test with NCI-H23 lung; 3.64 µM in the test with RPMI-8226 leukemia; 17.5 µM with A549 NSCLC; more than 100 µM in the test with SR leukemia. Besides, the TGI in the test on OVCAR-4 ovarian was 3.5 µM; in the test with PC-3 prostate, 5.63 µM; in the test with MALME-3M melanoma, 3.61 µM; in the test on MDA-MB-231 breast, 7.45 µM.

For `COC(=O)C1=C(C)NC(C)=C(C(=O)OC)C1/C=C(Cl)/C=C/c1ccccc1`, the GI50 with HOP-62 NSCLC was 20.1 µM; in the test with U251 CNS it was 23 µM; with NCI-H23 lung, 21.3 µM; in the test on RPMI-8226 leukemia, 32.2 µM; in the test on A549 NSCLC, 28.8 µM; in the test with SR leukemia it was 19.5 µM. Moreover, the GI50 in the test on OVCAR-4 ovarian is 30.4 µM; in the test with PC-3 prostate, 18.2 µM; with MALME-3M melanoma, 19.8 µM; in the test with MDA-MB-231 breast, 17.9 µM. The TGI with HOP-62 NSCLC is 38.5 µM; in the test with U251 CNS, 58.5 µM; in the test with NCI-H23 lung, 41.6 µM; with RPMI-8226 leukemia it was more than 100 µM; with A549 NSCLC, more than 100 µM; in the test on SR leukemia, 38.5 µM. Also, the TGI was more than 100 µM in the test with OVCAR-4 ovarian, 38.3 µM in the test on PC-3 prostate, 46 µM in the test on MALME-3M melanoma and 36.7 µM in the test on MDA-MB-231 breast.
